Data as given in paper PMC5224880, “Discovery and Molecular Basis of a Diverse Set of Polycomb Repressive Complex 2 Inhibitors Recognition by EED” (PLoS ONE, 2017).

What was measured:
[1] = target: T1, SetD8 (Homo sapiens, UniProt Q9NQR1); assay: HMT panel selectivity: SetD8; type: biochemical
T1 sequence (Q9NQR1 1-393): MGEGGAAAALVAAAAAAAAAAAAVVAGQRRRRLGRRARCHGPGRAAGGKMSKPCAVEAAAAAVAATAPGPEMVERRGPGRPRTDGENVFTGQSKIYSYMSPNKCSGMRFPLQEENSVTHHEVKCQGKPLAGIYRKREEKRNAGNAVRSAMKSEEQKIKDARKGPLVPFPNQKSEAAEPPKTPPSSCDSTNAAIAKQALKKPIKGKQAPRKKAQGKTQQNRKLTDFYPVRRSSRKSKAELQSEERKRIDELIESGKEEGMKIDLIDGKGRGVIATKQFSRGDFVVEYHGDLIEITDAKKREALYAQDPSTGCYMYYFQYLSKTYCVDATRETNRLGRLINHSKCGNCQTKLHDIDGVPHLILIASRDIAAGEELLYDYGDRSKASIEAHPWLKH
Description: (§1) Note: for EZH2, EZH2/EED/SUZ12/RBAP48/AEBP2 was used in the assay; for EZH1, EZH1/EED/SUZ12/RBAP48/AEBP2 was used in the assay; for MLL, MLL/WDR5/RBBP5/ASH2L/ was use in the assay. a, H3K27me0 peptide was used as substrate for both EZH2 and EZH1 activity; b, H3K27me1 peptide was used as substrate for both EZH2 and EZH1 activity. All HMT reactions were performed as described previously. ref: Proc Natl Acad Sci U S A. 2012 Dec 26;109(52):21360-5.

[2] = target: PRMT8 (Homo sapiens, UniProt Q9NR22); assay: HMT panel selectivity: PRMT8; type: biochemical
Description: as §1

[3] = target: recombinant EED (Homo sapiens, UniProt O75530); assay: ITC binding analysis; conditions: 25°C
Description: ITC experiments were performed on an Auto ITC200 (Microcal) at 25°C. The ITC sample cell was filled with 10 μM PRC2 in titration buffer containing 25 mM HEPES pH8.0, 150 mM NaCl, and 1% DMSO. 40 μL of 100 μM compounds in the same titration buffer was loaded in the ITC syringe. 19 injections, each of 2 μL, was injected into the ITC cell at 150 s intervals. Binding constant (K) and binding enthalpy (ΔH) determinations were obtained from the fit to the experimental data using a one-site model.
Both isothermal calorimetry (ITC) and surface plasmon resonance (SPR) assay were established for this purpose.

[4] = target: SETD2 (Homo sapiens, UniProt Q9BYW2); assay: HMT panel selectivity: SETD2; type: biochemical
Description: as §1

[5] = target: Suv39H2 (Homo sapiens, UniProt Q9H5I1); assay: HMT panel selectivity: Suv39H2; type: biochemical
Description: as §1

[6] = target: T2, His-EED (residues 1–441) (Homo sapiens, UniProt O75530); assay: biochemical; conditions: 30 nM His-EED, 15 nM biotin-H3K27me3 (19–33) peptide; read-out: IC50, EED-H3K27me3 AlphaScreen competition binding assay
T2 construct: 30 nM His-EED (residues 1–441) protein
T2 sequence (O75530 whole entry, the tested form may be a part): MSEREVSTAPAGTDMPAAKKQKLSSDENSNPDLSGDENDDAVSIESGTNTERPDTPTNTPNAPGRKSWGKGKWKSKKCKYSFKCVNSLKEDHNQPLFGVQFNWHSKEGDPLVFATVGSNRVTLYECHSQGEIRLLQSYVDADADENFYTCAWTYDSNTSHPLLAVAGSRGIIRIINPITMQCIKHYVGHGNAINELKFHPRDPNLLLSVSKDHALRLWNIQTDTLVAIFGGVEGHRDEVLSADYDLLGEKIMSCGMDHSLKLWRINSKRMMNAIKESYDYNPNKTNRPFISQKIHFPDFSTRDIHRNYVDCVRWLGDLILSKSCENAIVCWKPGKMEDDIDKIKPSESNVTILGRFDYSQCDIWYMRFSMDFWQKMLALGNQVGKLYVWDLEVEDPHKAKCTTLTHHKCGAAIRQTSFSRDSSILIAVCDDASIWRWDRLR
Description: The data were then fit to a dose response equation using the program Helios (Novartis) to determine the IC50 values.
Each compound was counterscreened to determine if it interfered with the AlphaScreen beads. Compounds were diluted as described in the preceding section, and the assay was performed by adding 12 μL of 10 nM Biotin-miniPEG-His6 peptide in the above buffer and incubated for 20 min at room temperature prior to addition of the acceptor and donor beads. The plates were then incubated for 1 h at room temperature in the dark before being read on the EnVision system (Perkin Elmer).
In addition to the enzymatic assay, we also developed a binding assay to measure the interaction between His-tagged recombinant EED protein and a biotinylated H3K27me3 peptide using the Amplified Luminescence Proximity Homogenous Assay Screen (AlphaScreen) [33, 34]. Binding of Biotin-H3K27me3 peptide to His-EED protein brings the streptavidin-coated donor beads and anti-His antibody coated acceptor beads into close proximity and thus a luminescent signal is produced. Disruption of EED-H3K27me3 interaction by H3K27me3 pocket binders will result in the signal reduction.

Sequence of recombinant EED (O75530 76-441 limits assumed): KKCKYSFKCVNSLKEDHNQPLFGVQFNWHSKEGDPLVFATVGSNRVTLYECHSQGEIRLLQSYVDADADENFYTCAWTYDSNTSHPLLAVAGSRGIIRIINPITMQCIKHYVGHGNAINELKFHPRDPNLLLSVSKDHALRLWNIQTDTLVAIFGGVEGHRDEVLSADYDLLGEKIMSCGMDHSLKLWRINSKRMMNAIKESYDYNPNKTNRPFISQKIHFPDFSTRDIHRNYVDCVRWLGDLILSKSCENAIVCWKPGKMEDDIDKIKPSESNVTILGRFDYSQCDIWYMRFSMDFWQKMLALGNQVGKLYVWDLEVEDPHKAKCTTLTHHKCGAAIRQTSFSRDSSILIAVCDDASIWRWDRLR
Sequence of PRMT8 (Q9NR22 whole entry, species assumed): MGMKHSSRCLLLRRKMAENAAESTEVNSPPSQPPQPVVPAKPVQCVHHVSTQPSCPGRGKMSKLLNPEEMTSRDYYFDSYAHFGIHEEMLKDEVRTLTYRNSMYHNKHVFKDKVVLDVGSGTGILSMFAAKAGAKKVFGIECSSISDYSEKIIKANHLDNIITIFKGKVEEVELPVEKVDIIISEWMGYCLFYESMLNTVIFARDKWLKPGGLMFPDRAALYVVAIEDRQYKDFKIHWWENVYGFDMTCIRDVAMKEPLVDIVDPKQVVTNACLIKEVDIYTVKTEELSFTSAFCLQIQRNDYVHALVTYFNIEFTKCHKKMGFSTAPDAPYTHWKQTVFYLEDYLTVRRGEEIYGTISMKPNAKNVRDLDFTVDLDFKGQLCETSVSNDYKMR
Sequence of Suv39H2 (Q9H5I1 whole entry, species assumed): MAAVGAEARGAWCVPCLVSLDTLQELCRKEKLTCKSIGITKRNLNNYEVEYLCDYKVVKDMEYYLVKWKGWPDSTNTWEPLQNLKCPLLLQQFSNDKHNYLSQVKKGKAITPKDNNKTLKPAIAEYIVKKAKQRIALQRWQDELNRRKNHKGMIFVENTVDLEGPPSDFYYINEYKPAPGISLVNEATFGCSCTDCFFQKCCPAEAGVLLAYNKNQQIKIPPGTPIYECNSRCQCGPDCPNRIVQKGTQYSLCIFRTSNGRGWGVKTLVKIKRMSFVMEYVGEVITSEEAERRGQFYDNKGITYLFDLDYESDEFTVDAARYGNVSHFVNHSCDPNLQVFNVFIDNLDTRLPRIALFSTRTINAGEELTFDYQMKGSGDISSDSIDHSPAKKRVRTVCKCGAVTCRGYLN
Sequence of SETD2 (Q9BYW2 whole entry, species assumed): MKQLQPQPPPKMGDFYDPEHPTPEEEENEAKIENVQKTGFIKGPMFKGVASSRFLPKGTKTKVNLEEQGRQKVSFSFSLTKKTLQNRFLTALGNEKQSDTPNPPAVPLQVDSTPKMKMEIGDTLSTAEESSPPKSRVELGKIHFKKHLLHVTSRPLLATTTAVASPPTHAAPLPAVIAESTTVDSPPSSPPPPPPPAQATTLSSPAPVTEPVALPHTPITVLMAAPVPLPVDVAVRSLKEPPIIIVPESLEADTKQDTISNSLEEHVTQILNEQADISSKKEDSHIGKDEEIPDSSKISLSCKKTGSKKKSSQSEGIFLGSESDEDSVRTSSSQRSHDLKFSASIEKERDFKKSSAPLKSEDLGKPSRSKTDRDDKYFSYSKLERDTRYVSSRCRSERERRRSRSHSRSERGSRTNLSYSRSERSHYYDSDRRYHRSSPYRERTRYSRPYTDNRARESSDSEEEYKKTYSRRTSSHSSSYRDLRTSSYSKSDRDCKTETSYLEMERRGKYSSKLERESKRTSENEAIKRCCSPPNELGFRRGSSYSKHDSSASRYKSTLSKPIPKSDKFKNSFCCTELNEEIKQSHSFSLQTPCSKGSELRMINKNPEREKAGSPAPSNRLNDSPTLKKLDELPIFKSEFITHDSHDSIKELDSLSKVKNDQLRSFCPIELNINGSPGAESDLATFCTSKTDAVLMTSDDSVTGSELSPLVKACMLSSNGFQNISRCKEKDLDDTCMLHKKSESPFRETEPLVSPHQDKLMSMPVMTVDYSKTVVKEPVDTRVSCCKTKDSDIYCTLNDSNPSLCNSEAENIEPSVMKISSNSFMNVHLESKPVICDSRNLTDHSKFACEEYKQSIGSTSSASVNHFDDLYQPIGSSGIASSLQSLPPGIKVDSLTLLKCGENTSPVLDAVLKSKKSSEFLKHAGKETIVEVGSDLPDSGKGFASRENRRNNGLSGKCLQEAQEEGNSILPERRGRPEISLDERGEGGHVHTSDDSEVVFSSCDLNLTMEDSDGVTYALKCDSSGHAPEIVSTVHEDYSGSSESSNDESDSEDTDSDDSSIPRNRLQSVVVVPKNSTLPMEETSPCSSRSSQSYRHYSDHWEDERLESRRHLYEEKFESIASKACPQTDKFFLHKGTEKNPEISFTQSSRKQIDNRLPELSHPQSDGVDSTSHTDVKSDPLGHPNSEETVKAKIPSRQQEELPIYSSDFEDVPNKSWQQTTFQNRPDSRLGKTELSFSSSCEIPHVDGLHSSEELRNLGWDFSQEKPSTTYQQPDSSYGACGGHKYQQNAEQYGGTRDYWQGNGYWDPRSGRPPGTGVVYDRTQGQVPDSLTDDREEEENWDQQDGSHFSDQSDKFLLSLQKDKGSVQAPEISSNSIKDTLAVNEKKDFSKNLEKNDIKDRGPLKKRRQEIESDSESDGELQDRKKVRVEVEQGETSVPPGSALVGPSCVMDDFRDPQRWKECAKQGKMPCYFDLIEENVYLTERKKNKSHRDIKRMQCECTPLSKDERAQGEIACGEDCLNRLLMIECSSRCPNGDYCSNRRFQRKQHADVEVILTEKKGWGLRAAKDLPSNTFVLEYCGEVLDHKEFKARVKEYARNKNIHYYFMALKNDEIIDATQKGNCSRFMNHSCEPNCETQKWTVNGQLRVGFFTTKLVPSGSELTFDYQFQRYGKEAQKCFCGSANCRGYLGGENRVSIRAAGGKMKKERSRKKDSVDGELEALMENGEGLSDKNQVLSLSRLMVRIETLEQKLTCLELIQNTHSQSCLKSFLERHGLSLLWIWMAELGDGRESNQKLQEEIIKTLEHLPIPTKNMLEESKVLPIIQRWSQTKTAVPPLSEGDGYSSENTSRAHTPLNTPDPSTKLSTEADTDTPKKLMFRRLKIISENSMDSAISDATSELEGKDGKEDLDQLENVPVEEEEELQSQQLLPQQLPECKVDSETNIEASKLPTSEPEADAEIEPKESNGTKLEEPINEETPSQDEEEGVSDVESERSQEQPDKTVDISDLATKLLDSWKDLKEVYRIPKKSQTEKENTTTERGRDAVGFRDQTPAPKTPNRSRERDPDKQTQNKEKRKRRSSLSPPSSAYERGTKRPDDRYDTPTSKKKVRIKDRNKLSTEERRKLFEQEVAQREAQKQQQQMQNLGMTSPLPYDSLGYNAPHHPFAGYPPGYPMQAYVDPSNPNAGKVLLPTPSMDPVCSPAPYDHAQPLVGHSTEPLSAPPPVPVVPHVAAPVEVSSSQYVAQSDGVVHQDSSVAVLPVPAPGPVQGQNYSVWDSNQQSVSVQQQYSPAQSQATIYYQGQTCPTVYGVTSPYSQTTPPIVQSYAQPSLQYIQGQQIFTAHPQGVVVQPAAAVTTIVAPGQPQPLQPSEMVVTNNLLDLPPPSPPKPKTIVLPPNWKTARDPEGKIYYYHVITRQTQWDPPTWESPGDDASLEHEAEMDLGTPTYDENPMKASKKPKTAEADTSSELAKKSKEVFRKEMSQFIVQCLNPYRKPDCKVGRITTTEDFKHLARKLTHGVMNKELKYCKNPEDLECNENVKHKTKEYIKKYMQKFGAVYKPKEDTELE

| IC50 [1] [µM] | IC50 [2] [µM] | IC50 [4] [µM] | IC50 [5] [µM] | Structure (SMILES) | enthalpy change (ITC) [3] [kcal/mol] | entropy change (ITC) [3] [cal/mol/deg] | stoichiometry of binding N (ITC) [3] | IC50 [6] [µM] |
| --- | --- | --- | --- | --- | --- | --- | --- | --- |
| > 100 | > 100 | > 100 | > 100 | Cc1cc(C)n(-c2cc(N3CCc4ccccc4C3)ccc2[N+](=O)[O-])n1 [EED666] |  |  |  |  |
| > 100 | > 100 | > 100 | > 100 | COc1ccccc1CN1CC(c2cn(C)c3ccccc23)C(N(C)C)C1 (stereo not drawn) [EED709] |  |  |  |  |
| > 100 | > 100 | > 100 | > 100 | COc1cc(-c2cc3n(c(=N)c2C#N)CCc2cc4c(cc2-3)OCO4)ccc1OC(C)C [EED396] |  |  |  |  |

| Structure (SMILES) | IC50 [1] [µM] | IC50 [2] [µM] | IC50 [4] [µM] | IC50 [5] [µM] | enthalpy change (ITC) [3] [kcal/mol] | entropy change (ITC) [3] [cal/mol/deg] | stoichiometry of binding N (ITC) [3] | IC50 [6] [µM] |
| --- | --- | --- | --- | --- | --- | --- | --- | --- |
| COc1cccc(CC2CC3Cc4c(cccc4OC)CC3N(C)C2)c1 (stereo not drawn) [EED210] | > 100 | > 100 | > 100 | > 100 | -20.14 ± 5.29 | -46.5 | 0.78 |  |
| N#Cc1c2c(c3nncn3c1NCc1ccco1)CN(Cc1ccccc1)CC2 [EED162] | > 100 | > 100 | > 100 | > 100 |  |  |  | 0.32 |
